Test system: HT-1080
Assay: Modulatory profiling: Alamar Blue viability, lethal compound cotreated with death modulator (EC50, AUC); on AUC HT.BHA: reference of the scale not given here; on AUC HT.EGTA: reference of the scale not given here
Type: cell-based
Set-up: AUC, modulator HT.3MA / AUC, modulator HT.ALLN / AUC HT.ATA / AUC HT.ActD / AUC HT.BHA / AUC HT.BHT / AUC HT.BocD / AUC HT.CHX / AUC HT.Co2+ / AUC HT.DPQ / AUC HT.EGTA / AUC HT.Lmim / AUC HT.NAD+ / AUC HT.Nec-1 / AUC HT.SP600125 / AUC HT.TLCK / AUC HT.U0126: unit not given beside the values
Details: for AUC HT.ATA: HT-1080, modulator ATA; for AUC HT.ActD: HT-1080, modulator ActD; for AUC HT.BHA: HT-1080, modulator BHA; for AUC HT.BHT: HT-1080, modulator BHT; for AUC HT.BocD: HT-1080, modulator BocD; for AUC HT.CHX: HT-1080, modulator CHX; for AUC HT.Co2+: HT-1080, modulator Co2+; for AUC HT.CspA: HT-1080, modulator CspA; for AUC HT.DPQ: HT-1080, modulator DPQ; for AUC HT.EGTA: HT-1080, modulator EGTA; for AUC HT.Gd3+: HT-1080, modulator Gd3+; for AUC HT.LNAME: HT-1080, modulator LNAME; for AUC HT.Lmim: HT-1080, modulator Lmim; for AUC HT.NAD+: HT-1080, modulator NAD+; for AUC HT.NMMA: HT-1080, modulator NMMA; for AUC HT.Nec-1: HT-1080, modulator Nec-1; for AUC HT.Pepstatin: HT-1080, modulator Pepstatin; for AUC HT.SP600125: HT-1080, modulator SP600125; for AUC HT.TLCK: HT-1080, modulator TLCK; for AUC HT.U0126: HT-1080, modulator U0126; for HT.atoc (AUC) / HT.bCarotene (AUC) / HT.deferox (AUC) / HT.digoxin (AUC) / HT.trolox (AUC) / HT.zVAD (AUC): HT-1080; for HT.atoc (AUC): modulator atoc; for HT.bCarotene (AUC): modulator bCarotene; for HT.deferox (AUC): modulator deferox; for HT.digoxin (AUC): modulator digoxin; for HT.trolox (AUC): modulator trolox; for HT.zVAD (AUC): modulator zVAD; for AUC, modulator HT.3MA / AUC, modulator HT.ALLN: HT-1080 cells, modulatory profile value (AUC); for AUC, modulator HT.3MA: lethal compound cotreated with modulator 3MA; for AUC, modulator HT.ALLN: lethal compound cotreated with modulator ALLN

| Compound | AUC HT.ATA | AUC HT.ActD | AUC HT.BHA | AUC HT.BHT | AUC HT.BocD | AUC HT.CHX | AUC HT.Co2+ | AUC HT.CspA | AUC HT.DPQ | AUC HT.EGTA | AUC HT.Gd3+ | AUC HT.LNAME | AUC HT.Lmim | AUC HT.NAD+ | AUC HT.NMMA | AUC HT.Nec-1 | AUC HT.Pepstatin | AUC HT.SP600125 | AUC HT.TLCK | AUC HT.U0126 | also measured |
| --- | --- | --- | --- | --- | --- | --- | --- | --- | --- | --- | --- | --- | --- | --- | --- | --- | --- | --- | --- | --- | --- |
| [N-]=[N+]=[N-].[Na+] [NaN3] | 0.03107 | 0.1197 | −0.04061 | −0.1432 | 0.008996 | 0.04722 | 0.03941 | −0.04777 | −0.00797 | −0.002548 | −0.004604 | −0.01351 | −0.07613 | 0.06683 | 0.002822 | −0.02968 | −0.004337 | −0.004079 | 0.0226 | 0.02567 | HT.atoc (AUC): −0.031; HT.bCarotene (AUC): 0.00681; HT.deferox (AUC): 0.07882; HT.digoxin (AUC): 0.01948; HT.trolox (AUC): −0.001376; HT.zVAD (AUC): 0.01031; AUC, modulator HT.3MA: −0.05719; AUC, modulator HT.ALLN: 0.06335 |
| COc1cc([C@@H]2c3cc4c(cc3[C@H](O)[C@H]3COC(=O)[C@H]23)OCO4)cc(OC)c1OC [Podophyllotoxin] | 0.1206 | −0.0009195 | 0.02739 | 0.0008586 | 0.0984 | 0.07197 | 0.1102 | −0.07592 | 0.005964 | 0.01145 | 0.00916 | −0.004926 | 0.1098 | 0.1318 | 0.000472 | −0.0001825 | −0.0005129 | −0.02768 | 0.06978 | 0.1354 | HT.atoc (AUC): −0.02023; HT.bCarotene (AUC): 0.0009225; HT.deferox (AUC): 0.3104; HT.digoxin (AUC): 0.1098; HT.trolox (AUC): 0.0103; HT.zVAD (AUC): 0.09402; AUC, modulator HT.3MA: 0.001351; AUC, modulator HT.ALLN: 0.1572 |
| C=C(C)[C@H]1Cc2c(ccc3c2O[C@@H]2COc4cc(OC)c(OC)cc4[C@@H]2C3=O)O1 [Rotenone] | 0.05899 | 0.1062 | −0.02184 | 0.02467 | 0.05103 | 0.07793 | 0.2003 | −0.1722 | −0.005403 | 0.002258 | 0.01051 | −0.007377 | 0.1413 | 0.1563 | 0.007832 | 0.003921 | −0.02255 | −0.01964 | 0.0438 | 0.1384 | HT.atoc (AUC): 0.04769; HT.bCarotene (AUC): 0.003594; HT.deferox (AUC): 0.347; HT.digoxin (AUC): 0.1617; HT.trolox (AUC): 0.003895; HT.zVAD (AUC): 0.01972; AUC, modulator HT.3MA: 0.06289; AUC, modulator HT.ALLN: 0.07973 |
| O=C(CCCCCN1C(=O)c2cccc3cccc(c23)C1=O)NO [Scriptaid] | −0.03873 | −0.1632 | −0.05883 | −0.103 | 0.02828 | −0.1048 | −0.1939 | −0.1413 | −0.00813 | −0.01767 | −0.02176 | −0.002637 | −0.05583 | 0.01064 | 0.008869 | −0.05617 | −0.01296 | −0.07 | −0.05575 | −0.04228 | HT.atoc (AUC): −0.009331; HT.bCarotene (AUC): −0.01872; HT.deferox (AUC): −0.1469; HT.digoxin (AUC): −0.08793; HT.trolox (AUC): −0.02986; HT.zVAD (AUC): 0.02988; AUC, modulator HT.3MA: −0.1244; AUC, modulator HT.ALLN: −0.1403 |
